Reference: patent US7582280B2, “Conjugates of antioxidants with metal chelating ligands for use in diagnostic and therapeutic applications” (Bracco International B.V., priority 2000, dated 2009)
Where a name gives a salt, the structure may show the parent alone.

Columns and labels:
[1] = test system: myocardial lesions induced by ischemia-reperfusion; settings: rats; cited from earlier work
[2] = Relaxivity in water (relaxometer); format: physicochemical; settings: 38° C., IBM PC/20 multispec relaxometer
Excerpt: (§1) Relaxivity of a paramagnetic material in the presence of a large protein such as human serum albumin may be used to study the ability of the compounds of the present invention to bind the target protein. As such, when a small molecule binds a large protein, the relaxivity of the former will increase because of an increase in its rotational correlation time. This increase in relaxivity may be used not only to measure the extent of binding but also to evaluate the viability of the paramagnetic agent as a blood pool contrast medium.
(§2) The relaxivity of the conjugates 22a and 22b in water as well as in water containing a known amount (20%, v/v) of a HSA preparation, known as, seronom (Table 1) were studied.
(§3) The relaxation time of the samples (22a or 22b) in seronom (T1Gd-ligand in seronom) and in water (T1Gd-ligand in water) were measured at 38° C. using an IBM PC/20 multispec relaxometer. The relaxivity of the samples in seronom (r1Gd-ligand in seronom) and in water (r1Gd-ligand in water) were calculated by the following equations: r1Gd-ligand in seronom=(1/T1Gd-ligand in seronom−1/T1seronom)/[Gd-ligand] r1Gd-ligand in water=(1/T1Gd-ligand in water−1/T1water)/[Gd-ligand],
(§4) where [Gd-ligand] is the concentration of the chelate 22a or 22b, which was determined by ICP^11; T1seronom is the relaxation time for pure aqueous seronom; T1water is the relaxation time for pure water.

[3] = biological target: T1, seronom (HSA preparation) (Homo sapiens, UniProt P02768); test: Relaxivity in water containing 20% v/v seronom (HSA preparation); format: physicochemical; settings: for Relaxivity in aqueous seronom r1Gd-ligand in seronom: 38° C., water containing 20% v/v seronom; for increase in relaxivity in the presence of seronom: seronom versus water
Excerpt: as §1, §2, §3, §4

[4] = biological target: T1, seronom (HSA preparation); test: Fraction bound in aqueous seronom by centrifree micropartition ultrafiltration and ICP [Gd]; format: in vitro ADME; settings: centrifuged 500 xg 45 min, [Gd] by ICP
Description: After the measurement, the sample in aqueous seronom was placed in a centrifree micropartition device (Millipore, Beverly, Mass.). The device was centrifuged at 500 xg for 45 min in a fixed angle rotor (Beckman Model J2-21M, JA-20 rotor). The solution (0.5 mL) was taken from below the filter (unbound Gd-ligand) for [Gd] ICP measurement. The [Gd] of the uncentrifuged sample was also measured as a control. The Fraction Bound was calculated by the following equation: Fraction Bound=([Gd-ligand]control−[Gd-ligand]unbound)/[Gd-ligand]control. Table 1 details the results of the tests.

T1 sequence (P02768 25-609): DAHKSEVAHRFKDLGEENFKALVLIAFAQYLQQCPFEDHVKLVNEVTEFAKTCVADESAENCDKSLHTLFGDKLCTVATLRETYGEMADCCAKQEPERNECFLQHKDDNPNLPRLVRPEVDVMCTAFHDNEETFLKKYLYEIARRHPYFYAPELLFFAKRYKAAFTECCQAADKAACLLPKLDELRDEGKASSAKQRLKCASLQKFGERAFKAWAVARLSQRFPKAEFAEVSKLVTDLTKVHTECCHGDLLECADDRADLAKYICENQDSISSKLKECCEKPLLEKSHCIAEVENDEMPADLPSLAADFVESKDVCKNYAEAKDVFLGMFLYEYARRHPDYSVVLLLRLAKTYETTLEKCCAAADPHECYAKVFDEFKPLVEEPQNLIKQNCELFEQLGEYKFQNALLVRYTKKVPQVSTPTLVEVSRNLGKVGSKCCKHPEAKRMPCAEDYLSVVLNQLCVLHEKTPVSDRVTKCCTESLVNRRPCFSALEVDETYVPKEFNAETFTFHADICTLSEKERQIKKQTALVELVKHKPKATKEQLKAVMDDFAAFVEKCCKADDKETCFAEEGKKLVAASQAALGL

Row | Relaxivity in water r1Gd-ligand in water [2] | Relaxivity in aqueous seronom r1Gd-ligand in seronom [3] | increase in relaxivity in the presence of seronom [3] | fraction unbound [4] | SMILES | inhibition of myocardial lesions induced by ischemia-reperfusion [1]
1 | – | – | – | – | CCCCCCCCCCCCCCCCCCOC1=C(O)[C@@H]([C@@H](O)CO)OC1=O [2-O-octadecylascorbic acid] | markedly inhibit
2 | 4.83 mM⁻¹ s⁻¹ | 6.38 mM⁻¹ s⁻¹ | 32% | 0.912 | O=C(O)CN1CCN(CC(=O)O)CCN(CC(=O)NCC(=O)NC[C@@H](O)[C@@H]2OC(=O)C(O)=C2O)CCN(CC(=O)O)CC1 [Compound 22a, 1,4,7,10-tetraazacyclododecane-1,4,7-triacetic acid, 10-[2-[[2-[[(2R)-2-[(2S)-2,5-dihydro-3,4-dihydroxy-5-oxo-2-furanyl]-2-hydroxyethyl]amino]-2-oxoethyl]amino]2-oxoethyl]-, gadolinium salt] | –
3 | 7.20 mM⁻¹ s⁻¹ | 8.18 mM⁻¹ s⁻¹ | 14% | 0.891 | O=C(O)CN1CCN(CC(=O)O)CCN(CC(=O)NCC(=O)NCC2CCC(C(=O)NC[C@@H](O)[C@@H]3OC(=O)C(O)=C3O)CC2)CCN(CC(=O)O)CC1 (stereo partly drawn) [Compound 22b, 1,4,7,10-tetraazacyclododecane-1,4,7-triacetic acid, 10-[2-[[2-[[[4-[[[(2R)-2-[(2S)-2,5-dihydro-3,4-dihydroxy-5-oxo-2-furanyl]-2-hydroxyethyl]amino]carbonyl]cyclohexyl]methyl]amino]-2-oxoethyl]amino]2-oxoethyl]-, gadolinium salt] | –
